# Results reported in US10851075B2, “Stat3 pathway inhibitors and cancer stem cell inhibitors” (Sumitomo Dainippon Pharma Oncology, Inc., priority 2007, dated 2020).
# Read-outs that look alike come from different tables or passages of the source.
# Experiments:
# [1] = system: H1299 cells; assay: MTT cell viability, H1299; assay type: cell-based; conditions: Homo sapiens, NCI-H1299, MTT at 24 hours
# Text: (§1) Cell Culture: HeLa, DU145, H1299, DLD1, SW480, A549, MCF7, LN18, HCT116, HepG2, Paca2, Panel, LNcap, FaDu, HT29, and PC3 cells (ATCC, Manassas, Va.) were maintained in Dulbecco's Modified Eagle Medium (DMEM) (Invitrogen, Carlsbad, Calif.) supplemented with 10% fetal bovine serum (MS) (Gemini Bio-Products, West Sacramento, Calif.) and 5% penicillin/streptomycin/amphotercin B (Invitrogen).
# (§2) Cell Viability Determination: For 3-(4,5 dimethylthiazol-2-yl)-2,5-diphenyltetrazolium (MTT) (Sigma-Aldrich, St. Louis, Mo.) analysis, cells were plated in 96 well plates at 10,000 cells per well. 24 hours after plating, compound was added to cells at indicated doses. 22 hours following compound addition, MTT was added to each well (0.5 mg/ml, final concentration) and plates were incubated for an additional 2 hours at 37° C., Medium was then aspirated and the formazan product was solubilized in 100 μl of isopropyl alcohol. The absorbance of each well was measured at 570 nm using a microplate reader.
# (§3) Identification of compounds that are apoptotic to a broad spectrum of cancer cells in vitro. Cells plated in 96 well plates and treated with indicated compounds were subjected to MTT analysis at 24 hours following compound treatment to determine cell viability.
# [2] = system: HeLa cells; assay: MTT cell viability, HeLa; assay type: cell-based; conditions: Homo sapiens, MTT at 24 hours
# Text: as §1, §2, §3
# [3] = system: DU145 cells; assay: MTT cell viability, DU145; assay type: cell-based; conditions: Homo sapiens, DU-145, MTT at 24 hours
# Text: as §1, §2, §3
# [4] = molecular target: T1, Stat3 DNA-binding activity (Homo sapiens, UniProt P40763); assay: Stat3 DNA binding assay (EMSA), HeLa nuclear extract; assay type: biochemical; conditions: for inhibition % 1 × MTT IC50: compound at 1 × MTT IC50, untreated Stat3 retarded band set as 100; for inhibition % 3 × MTT IC50: compound at 3 × MTT IC50, untreated Stat3 retarded band set as 100
# T1 construct: endogenous in cells; host or cells: HeLa cells (nuclear extract)
# Method: STAT3 DNA Binding Assay: Electrophoretic mobility shift assay (EMSA) was performed as described by the manufacturer (Li-Cor Biosciences, Lincoln, Nebr.). Briefly, nuclear extracts were made from HeLa cells using the NucBuster Protein Extraction Kit as described by the manufacturer (EMD Biosciences, San Diego, Calif.). 5 μg of nuclear extract was pre-incubated with the indicated dose of indicated compound for 30 minutes prior to a 15-minute incubation with the IR700-labeled consensus Stat3 oligonucleotide. Samples were then electrophoresed on a polyacrylamide gel and directly scanned using the Odyssey infrared imaging system (Li-Cor Biosciences). For the enzyme-linked immunosorbent assay (ELISA), 5 μg of nuclear extract was preincubated with indicated concentration of indicated compound for 30 minutes prior to the addition of biotinylated oligo (5′-Biotin-[…]-3′). Stat3-DNA complexes were then captured on streptavidin coated 96 well plates (Pierce, Rockford, Ill.). Bound complexes were then incubated with Stat3 polyclonal antibody (Santa Cruz Biotechnology, Santa Cruz, Calif.) followed by anti-rabbit HRP conjugated secondary antibody (GE Healthcare, Pittsburgh, Pa.). Bound antibody was then visualized by addition of TMB substrate (Pierce) and absorbance measured at 450 nm.
# Inhibition of Stat3 DNA-binding activity. Nuclear extracts from HeLa cells, which contain constitutively activated Stat3 as detected by phoshporylation at the tyrosine 705 residue, were used to perform Stat3 EMSAs to monitor Stat3 DNA binding activity. Nuclear extracts were incubated with indicated compound prior to incubation with IR700-labeled Stat3 consensus oligonucleotide. Binding of Stat3 to the oligonucleotide was monitored by gel electrophoresis and detection using a LiCor Odyssey infrared scanner.
# To calculate the inhibition %, the density of the untreated Stat3 retarded band (control) was set as 100 and the inhibition % was the difference between the control and the relative DNA binding activity of the drug-treated samples.
# [5] = system: SW480 Hoechst SP cells; assay: Anti-CSC MTT assay, SW480 Hoechst side population (SP) cells; assay type: cell-based; conditions: Homo sapiens, 48 h
# Method: as §2
# (§4) Hoechst Side Population: To identify and isolate side population (SP) and non-SP fractions, SW480 cells were removed from the culture dish with trypsin and EDTA, pelleted by centrifugation, washed with phosphate-buffered saline (PBS), and resuspended at 37° C. in Dulbecco's modified Eagle's medium (DMEM) containing 2% FBS and 1 rnM HEPES. The cells were then labeled with Hoechst 33342 (Invitrogen) at a concentration of 5 μg/mL. The labeled cells were incubated for 120 minutes at 37° C., either alone or with 50 μM verapamil (Sigma-Aldrich, St. Louis). After staining, the cells were suspended in Hanks' balanced saline solution (MISS; Invitrogen) containing 2% FBS and 1 mM HEPES, passed a through 40 μm mesh filter, and maintained at 4° C. until flow cytometry analysis. The Hoechst dye was excited at 350 nm, and its fluorescence was measured at two wavelengths using a 450 DF10 (450/20 nm band-pass filter) and a 675LP (675 nm long-pass edge filter) optical filter. The gating on forward and side scatter was not stringent, and only debris was excluded.
# (§5) In order to test compounds for anti-CSC activity, freshly isolated CSCs (SW480 Hoechst SP cells or CD44^high FaDu cells) were exposed to a dose range (30-0.117 μM) of compound for 48 h before examining cell viability by MTT assay. IC50s were estimated by plotting the percentage of surviving cells. As shown in Table 7 and Table 8, the compounds of present invention can target cancer stem cells.
# [6] = system: SW480 NSP cells; assay: Anti-CSC MTT assay, SW480 non-SP (NSP) cells; assay type: cell-based; conditions: Homo sapiens, 48 h
# Method: as §2, §4, §5
# [7] = system: DLD1 cells; assay: MTT cell viability, DLD1; assay type: cell-based; conditions: Homo sapiens, DLD-1; DLD1, Colon; MTT at 24 hours; Table 3
# Text: as §1, §2, §3
# [8] = system: SW480 cells; assay: MTT cell viability, SW480; assay type: cell-based; conditions: Homo sapiens; SW480, Colon; MTT at 24 hours; Table 3
# Text: as §1, §2, §3
# [9] = system: Paca2 cells; assay: MTT cell viability, Paca2; assay type: cell-based; conditions: PaCa-2; Paca2, Pancreas; MTT at 24 hours; Table 3
# Text: as §1, §2, §3
# [10] = system: Panc1 cells; assay: MTT cell viability, Panc1; assay type: cell-based; conditions: Homo sapiens, PANC-1; Panc1, Pancreas; MTT at 24 hours; Table 3
# Text: as §1, §2, §3
# [11] = system: PC3 cells; assay: MTT cell viability, PC3; assay type: cell-based; conditions: Homo sapiens, PC-3; PC3, Prostate; MTT at 24 hours; Table 3
# Text: as §1, §2, §3
# [12] = system: Stat3 transcription activity; assay: Stat3-luciferase (Stat3-Luc) reporter assay in HeLa cells, OSM stimulated; assay type: cell-based; conditions: Homo sapiens, compound 30 minutes before 25 ng/ml oncostatin M, 6 hours, read-out: IC50 in Stat3-Luc assays
# Method: Luciferase Reporter Assay: HeLa Cells were co-transfected with Stat3-luciferase (Stat3-Luc) reporter vector (Panomics, Fremont, Calif.) and Renilla luciferase (Promega, Madison, Wis.) using Lipofectamine 2000 as described by the manufacturer (Invitrogen). Following transfection, cells were maintained in medium containing 0.5% FBS for 24 hours. Cells were then treated with the indicated compound for 30 minutes prior to the addition of 25 ng/ml oncostatin M (OSM) (R&D Systems, Minneapolis, Minn.) to the medium. 6 hours following OSM addition, cells were harvested and levels of firefly and renilla luciferase were measured using the Dual-Glo Luciferase Assay System as described by the manufacturer (Promega).
# Inhibition of Stat3 transcription activity. Compounds were tested for their ability to inhibit Stat3 transcription activation activity in cells using a Stat3-luciferase (Stat3-luc) reporter construct. Cells transfected with Stat3-luc were cultured in reduced serum medium prior to addition of indicated compound for 30 minutes. Cells were then stimulated with 25 ng/ml oncostatin (OSM) for 6 hours followed by detection of Stat3-luc reporter activity.
# [13] = system: A549 cells; assay: MTT cell viability, A549; assay type: cell-based; conditions: Homo sapiens; A549, Lung; MTT at 24 hours following compound treatment; Table 3
# Text: as §1, §2, §3
# [14] = system: MCF7 cells; assay: MTT cell viability, MCF7; assay type: cell-based; conditions: Homo sapiens; MCF7, Breast; MTT at 24 hours; Table 3
# Text: as §1, §2, §3
# [15] = system: HCT116 cells; assay: MTT cell viability, HCT116; assay type: cell-based; conditions: Homo sapiens, HCT-116; HCT116, Colon; MTT at 24 hours; Table 3
# Text: as §1, §2, §3
# [16] = system: HT29 cells; assay: MTT cell viability, HT29; assay type: cell-based; conditions: Homo sapiens, HT-29; HT29, Colon; MTT at 24 hours; Table 3
# Text: as §1, §2, §3
# [17] = H1299, Table 4, read-out: IC50 (μM) H1299
# [18] = Hela, Table 4, read-out: IC50 (μM) Hela
# [19] = DU145, Table 4, read-out: IC50 (μM) DU145
# [20] = H1299, Lung, Table 3, read-out: IC50
# [21] = HeLa, Cervix, Table 3, read-out: IC50
# [22] = DU145, Prostate, Table 3, read-out: IC50
# T1 sequence (P40763 whole entry): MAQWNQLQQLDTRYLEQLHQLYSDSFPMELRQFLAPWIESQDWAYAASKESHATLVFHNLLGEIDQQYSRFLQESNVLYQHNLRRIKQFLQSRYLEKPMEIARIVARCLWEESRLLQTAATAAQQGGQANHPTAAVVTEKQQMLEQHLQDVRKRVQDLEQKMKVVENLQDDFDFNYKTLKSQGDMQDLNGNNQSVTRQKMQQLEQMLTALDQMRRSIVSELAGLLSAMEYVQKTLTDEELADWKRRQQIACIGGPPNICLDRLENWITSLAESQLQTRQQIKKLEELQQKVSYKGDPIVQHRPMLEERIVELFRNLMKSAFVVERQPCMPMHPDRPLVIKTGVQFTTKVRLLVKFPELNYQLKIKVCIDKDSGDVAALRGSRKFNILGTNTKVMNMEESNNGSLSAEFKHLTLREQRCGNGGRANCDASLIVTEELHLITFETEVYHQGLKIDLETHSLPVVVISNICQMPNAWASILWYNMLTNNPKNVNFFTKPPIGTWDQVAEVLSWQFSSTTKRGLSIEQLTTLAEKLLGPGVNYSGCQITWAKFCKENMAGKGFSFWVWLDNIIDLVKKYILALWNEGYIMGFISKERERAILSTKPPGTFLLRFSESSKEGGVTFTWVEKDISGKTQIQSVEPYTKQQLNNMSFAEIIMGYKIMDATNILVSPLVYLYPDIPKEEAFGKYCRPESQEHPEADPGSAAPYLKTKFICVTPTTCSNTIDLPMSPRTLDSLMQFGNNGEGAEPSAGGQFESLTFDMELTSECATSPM
SMILES,"IC50 [1, 17]","IC50 [2, 18]","IC50 [3, 19]",also measured
CCc1cc2c(o1)C(=O)c1ccccc1C2=O [Compound 101],3 to 10 µM,11.7 µM,3.7 µM,–
Cc1cc2c(o1)C(=O)c1ccccc1C2=O [Compound 102],–,11.4 µM,–,–
O=C1c2ccccc2C(=O)c2oc(Cc3ccccc3)cc21 [Compound 103],8.9 µM,16.7 µM,> 10 µM,inhibition % 1 × MTT IC50 [4]: 98%; inhibition % 3 × MTT IC50 [4]: 26%
CCc1cc2c(o1)C(=O)c1cc(Cl)ccc1C2=O [Compound 105],8.4 µM,13 µM,6.5 µM,–
CCc1cc2c(o1)C(=O)c1cc(F)ccc1C2=O [Compound 106],–,–,4.84 µM,inhibition % 1 × MTT IC50 [4]: 26%; inhibition % 3 × MTT IC50 [4]: 51%; IC50 [5]: 4.44 µM; IC50 [6]: 2 µM
Cc1oc2c(c1-c1ccccc1)C(=O)c1ccccc1C2=O [Compound 108],–,20.7 µM,30.8 µM,–
C=Cc1cc2c(o1)C(=O)c1ccccc1C2=O [Compound 201],–,–,1.76 µM,–
CC(O)c1cc2c(o1)C(=O)c1ccccc1C2=O (centres unmarked) [Compound 301],0.794 µM,3.36 µM,–,inhibition % 1 × MTT IC50 [4]: 20%; inhibition % 3 × MTT IC50 [4]: 26%
CC(=O)OC(C)c1cc2c(o1)C(=O)c1ccccc1C2=O (centres unmarked) [Compound 303],–,–,2.88 µM,–
CC(=O)OC(C)c1cc2c(o1)C(=O)c1cc(F)ccc1C2=O (centres unmarked) [Compound 305],–,1.71 µM,1.1 µM,–
O=C(c1ccccc1)c1cc2c(s1)C(=O)c1ccccc1C2=O [Compound 402],1.04 µM,2.01 µM,0.554 µM,"IC50 [1, 20]: 1.04 µM; IC50 [2, 21]: 2.01 µM; IC50 [7]: 2510 nM; IC50 [8]: 1490 nM; IC50 [9]: 490 nM; IC50 [10]: 7210 nM; IC50 [3, 22]: 0.55 µM; IC50 [11]: 8480 nM; IC50 [12]: ~750 nM; inhibition % 1 × MTT IC50 [4]: 29%; inhibition % 3 × MTT IC50 [4]: 57%; IC50 [5]: 0.4 µM; IC50 [6]: 0.38 µM"
O=C(c1ccc([N+](=O)[O-])cc1)c1cc2c(s1)C(=O)c1ccccc1C2=O [Compound 403],4 µM,–,6.5 µM,–
O=C(O)c1cc2c(o1)C(=O)c1ccccc1C2=O [Compound 405],–,–,1.41 µM,–
COc1ccc(C(=O)c2cc3c(s2)C(=O)c2ccccc2C3=O)cc1 [Compound 407],4.11 µM,3.78 µM,2.1 µM,IC50 [12]: ~5000 nM
O=C(c1ccc(O)cc1)c1cc2c(s1)C(=O)c1ccccc1C2=O [Compound 408],3.62 µM,4.47 µM,0.554 µM,IC50 [12]: ~2000 nM
CC(=O)c1cc2c(s1)C(=O)c1ccccc1C2=O [Compound 409],1.03 µM,1.88 µM,0.442 µM,IC50 [12]: ~2000 nM
COc1ccc(C(=O)c2cc3c(s2)C(=O)c2ccccc2C3=O)cc1OC [Compound 410],1.88 µM,2.52 µM,0.239 µM,IC50 [12]: ~1000 nM
O=C(c1ccc(O)c(O)c1)c1cc2c(s1)C(=O)c1ccccc1C2=O [Compound 411],14.1 µM,14.7 µM,0.616 µM,–
COc1ccc(C(=O)c2cc3c(o2)C(=O)c2ccccc2C3=O)cc1OC [Compound 413],1.9 µM,4.38 µM,0.721 µM,–
O=Cc1cc2c(o1)C(=O)c1ccccc1C2=O [Compound 414],11.3 µM,13 µM,14.1 µM,–
O=C(c1ccccc1)c1cc2c(o1)C(=O)c1cc(Br)ccc1C2=O [Compound 415],6.5 µM,10.5 µM,9.8 µM,–
CC(=O)c1cc2c(o1)C(=O)c1cc(Cl)ccc1C2=O [Compound 416],0.337 µM,0.711 µM,0.211 µM,"IC50 [13]: 1900 nM; IC50 [1, 20]: 0.25 µM; IC50 [14]: 750 nM; IC50 [2, 21]: 0.62 µM; IC50 [7]: 540 nM; IC50 [8]: 440 nM; IC50 [15]: 690 nM; IC50 [16]: 1910 nM; IC50 [9]: 210 nM; IC50 [10]: 2590 nM; IC50 [3, 22]: 0.22 µM; IC50 [11]: 3100 nM; inhibition of Stat3 DNA binding (in words) ([4]; HeLa nuclear extract, FIG. 6A/6B): inhibits Stat3 DNA-binding activity"
O=C(c1cccc(Cl)c1)c1cc2c(o1)C(=O)c1ccccc1C2=O [Compound 417],–,–,0.768 µM,–
O=C(c1ccccc1)c1cc2c(o1)C(=O)c1cc(F)ccc1C2=O [Compound 419],–,–,1.82 µM,–
